Measured values reported in patent publication US11298363B2, “Triazolobenzazepines as vasopressin V1a receptor antagonists” (RICHTER GEDEON NYRT., priority 2017, dated 2022).
Counter-ions that a name gives are not always drawn.

Columns and labels:
[1] = molecular target: T1, human vasopressin V1a receptor (Homo sapiens, UniProt P37288); assay: Human vasopressin V1a receptor binding assay; conditions: 1321N1 cell membranes, [3H]vasopressin; read-out: Ki (nM) on hV1a cell line
Procedure, shortened: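 Ki values come from IC50 via Cheng-Prusoff (KD from prior Scatchard), averaged over at least two independent runs. Human V1a membranes were incubated with radioligand 60 minutes at 27° C., bound ligand collected by filtration; (Arg^8)-vasopressin at 1.2×10^−6 M defined non-specific binding.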

[2] = molecular target: T1, human vasopressin V1a receptor; assay: Functional assay on human vasopressin V1a receptor expressing cell line (intracellular Ca2+ fluorescence); assay type: cell-based; conditions: for IC50: 1321N1 cells, (Arg8)-vasopressin at EC80, read-out: IC50 (nM) on hV1a cell line

T1 sequence (P37288 whole entry): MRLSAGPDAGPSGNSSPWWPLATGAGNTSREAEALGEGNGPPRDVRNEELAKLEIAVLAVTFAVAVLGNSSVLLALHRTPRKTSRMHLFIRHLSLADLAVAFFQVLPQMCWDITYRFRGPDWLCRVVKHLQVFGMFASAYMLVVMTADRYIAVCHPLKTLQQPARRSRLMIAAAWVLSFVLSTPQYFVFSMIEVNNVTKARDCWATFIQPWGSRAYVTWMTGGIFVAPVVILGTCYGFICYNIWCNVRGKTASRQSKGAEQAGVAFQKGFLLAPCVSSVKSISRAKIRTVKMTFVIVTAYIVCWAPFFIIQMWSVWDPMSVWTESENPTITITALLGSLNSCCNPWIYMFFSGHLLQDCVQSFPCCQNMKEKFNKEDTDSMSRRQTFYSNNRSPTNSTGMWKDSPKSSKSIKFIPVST

| Compound | Ki [1] [nM] | IC50 [2] [nM] | inhibition at 1 µM ([2]; read-out: % at 1 μM, printed in the column IC50 (nM) on hV1a cell line) [%] |
| --- | --- | --- | --- |
| COC1Cc2cc(Cl)ccc2-n2c(nnc2C2CCN(Cc3ccccn3)C2)C1 (stereo not drawn) [Example 185, 8-chloro-5-methoxy-1-[1-(pyridin-2-ylmethyl)pyrrolidin-3-yl]-5,6-dihydro-4H-[1,2,4]triazolo[4,3-a][1]benzazepine] | 4.1 | 19 | – |
| Clc1ccc2c(c1)CC1(Cc3nnc(C4CCN(Cc5cccnc5)C4)n3-2)OCCO1 (stereo not drawn) [Example 231, 8′-chloro-1′-[1-(pyridin-3-ylmethyl)pyrrolidin-3-yl]-4′H,6′H-spiro[1,3-dioxolane-2,5′-[1,2,4]triazolo[4,3-a][1]benzazepine]] | 1.1 | 5.9 | – |
| Clc1ccc2c(c1)CC1(Cc3nnc([C@H]4CC[C@H](Nc5ccccn5)CC4)n3-2)OCCO1 [Example 193, N-[trans-4-(8′-chloro-4′H,6′H-spiro[1,3-dioxolane-2,5′-[1,2,4]triazolo[4,3-a][1]benzazepin]-1′-yl)cyclohexyl]pyridin-2-amine] | 0.1 | 0.9 | – |
| OC1Cc2cc(Cl)ccc2-n2c(nnc2N2CCC(Oc3ccccn3)CC2)C1 (stereo not drawn) [Example 181, 8-chloro-1-[4-(pyridin-2-yloxy)piperidin-1-yl]-5,6-dihydro-4H-[1,2,4]triazolo[4,3-a][1]benzazepin-5-ol] | 0.5 | 1.8 | – |
| CCC[C@]1(OCC)CC[C@H](c2nnc3n2-c2ccc(Cl)cc2CC2(C3)OCCO2)CC1 [Example 238, 8′-chloro-1′-(trans-4-ethoxy-4-propylcyclohexyl)-4′H,6′-spiro[1,3-dioxolane-2,5′-[1,2,4]triazolo[4,3-a][1]benzazepine]] | 0.7 | 8.2 | – |
| CN(C)[C@H]1CC[C@H](c2nnc3n2-c2ccc(Cl)cc2CC2(C3)OCCO2)CC1 [Example 190, Trans-4-(8′-chloro-4′H,6′H-spiro[1,3-dioxolane-2,5′-[1,2,4]triazolo[4,3-a][1]benzazepin]-1′-yl)-N,N-dimethylcyclohexanamine] | 5.3 | 105 | – |
| O=C1Cc2cc(Br)ccc2-n2c(nnc2[C@H]2CC[C@H](Oc3ccccn3)CC2)C1 [Example 64] | 0.5 | 1.1 | – |
| COC1Cc2cc(Cl)ccc2-n2c(nnc2[C@H]2CC[C@H](N3CCOCC3)CC2)C1 (stereo partly drawn) [Example 130, 8-chloro-5-methoxy-1-[trans-4-(morpholin-4-yl)cyclohexyl]-5,6-dihydro-4H-[1,2,4]triazolo[4,3-a][1]benzazepine] | 2.4 | 6.1 | – |
| CC(C)NC1Cc2cc(Cl)ccc2-n2c(nnc2[C@H]2CC[C@H](C(F)(F)F)CC2)C1 (stereo partly drawn) [Example 44, 8-chloro-N-(propan-2-yl)-1-[trans-4-(trifluoromethyl)cyclohexyl]-5,6-dihydro-4H-[1,2,4]triazolo[4,3-a][1]benzazepine-5-amine] | 26 | 480 | – |
| COC1Cc2cc(Cl)ccc2-n2c(nnc2N2CCC(Oc3ccccn3)CC2)C1 (stereo not drawn) [Example 197, 8-chloro-5-methoxy-1-[4-(pyridin-2-yloxy)piperidin-1-yl]-5,6-dihydro-4H-[1,2,4]triazolo[4,3a][1]benzazepine] | 0.3 | 4.1 | – |
| Clc1ccc2c(c1)CC1(Cc3nnc(N4CCN(c5ncccc5Cl)CC4)n3-2)OCCO1 [Example 164, 8′-chloro-1-[4-(3-chloropyridin-2-yl)piperazin-1-yl]-4′H,6′H-spiro[1,3-dioxolane-2,5′-[1,2,4]triazolo[4,3-a][1]benzazepine]] | 0.3 | 0.9 | – |
| CC(C)(C)OC(=O)NC1Cc2cc(Cl)ccc2-n2c(nnc2N2CCC(N3CCCCC3)CC2)C1 (stereo not drawn) [Example 95, Tert-butyl [1-(1,4′-bipiperidin-1′-yl)-8-chloro-5,6-dihydro-4H-[1,2,4]triazolo[4,3-a][1]benzazepin-5-yl]carbaminate] | 547 | – | 22 |
| O=C(N[C@H]1Cc2cc(Cl)ccc2-n2c(nnc2[C@H]2CC[C@H](Oc3ccccn3)CC2)C1)C1CCOCC1 [Example 151] | 30 | 209 | – |

Other lines, results leading:

| Ki [1] [nM] | IC50 [2] [nM] | inhibition at 1 µM ([2]; read-out: % at 1 μM, printed in the column IC50 (nM) on hV1a cell line) [%] | Compound |
| --- | --- | --- | --- |
| 1.1 | 2.2 | – | CN([C@H]1Cc2cc(Cl)ccc2-n2c(nnc2[C@H]2CC[C@H](Oc3ccccn3)CC2)C1)S(C)(=O)=O [Example 76, N-{(5S)-8-chloro-1-[trans-4-(pyridin-2-yloxy)cyclohexyl]-5,6-dihydro-4H-[1,2,4]triazolo[4,3-a][1]benzazepin-5-yl}-N-methylmethanesulfonamide] |
| 1.4 | 8.3 | – | NC1Cc2cc(Br)ccc2-n2c(nnc2[C@H]2CC[C@H](Oc3ccccn3)CC2)C1 (stereo partly drawn) [Example 39, 8-bromo-1-[trans-4-(pyridin-2-yloxy)cyclohexyl]-5,6-dihydro-4H-[1,2,4]triazolo[4,3-a][1]benzazepine-5-amine] |
| 1.9 | 18 | – | CCN[C@H]1Cc2cc(Cl)ccc2-n2c(nnc2[C@H]2CC[C@H](Oc3ccccn3)CC2)C1 [Example 77, (5S)-8-chloro-N-ethyl-1-[trans-4-(pyridin-2-yloxy)cyclohexyl]-5,6-dihydro-4H-[1,2,4]triazolo[4,3-a][1]benzazepine-5-amine] |
| 0.4 | 2.7 | – | COC1Cc2ccccc2-n2c(nnc2[C@H]2CC[C@H](Oc3ccccn3)CC2)C1 (stereo partly drawn) [Example 109, 5-methoxy-1-[trans-4-(pyridin-2-yloxy)cyclohexyl]-5,6-dihydro-4H-[1,2,4]triazolo[4,3-a][1]benzazepine] |
| 0.3 | 0.9 | – | CO[C@H]1Cc2cc(F)ccc2-n2c(nnc2[C@H]2CC[C@H](Oc3ccccn3)CC2)C1 (single isomer, unassigned) [Example 177] |
| 7.6 | 55 | – | FC(F)(F)c1ccc2c(c1)CC(OCC1CC1)Cc1nnc([C@H]3CC[C@H](Oc4ccccn4)CC3)n1-2 (stereo partly drawn) [Example 51, 5-(cyclopropylmethoxy)-1-[trans-4-(pyridin-2-yloxy)cyclohexyl]-8-(trifluoromethyl)-5,6-dihydro-4H-[1,2,4]triazolo[4,3-a][1]benzazepine] |
| 32 | 480 | – | NCC(=O)N[C@H]1Cc2cc(Cl)ccc2-n2c(nnc2[C@H]2CC[C@H](Oc3ccccn3)CC2)C1 [Example 11, N-{(5S)-8-chloro-1-[trans-4-(pyridin-2-yloxy)cyclohexyl]-5,6-dihydro-4H-[1,2,4]triazolo[4,3-a][1]benzazepin-5-yl}glycinamide] |
| 0.2 | 1.6 | – | OCCOC1Cc2cc(Cl)ccc2-n2c(nnc2[C@H]2CC[C@H](Oc3ccccn3)CC2)C1 (stereo partly drawn) [Example 136, 2-({8-chloro-1-[trans-4-(pyridin-2-yloxy)cyclohexyl]-5,6-dihydro-4H-[1,2,4]triazolo[4,3-a][1]benzazepin-5-yl}oxy)ethanol] |
| 9.7 | 160 | – | CN(C)C1Cc2cc(C(F)(F)F)ccc2-n2c(nnc2[C@H]2CC[C@H](Oc3ccccn3)CC2)C1 (stereo partly drawn) [Example 35, N,N-dimethyl-1-[trans-4-(pyridin-2-yloxy)cyclohexyl]-8-(trifluoromethyl)-5,6-dihydro-4H-[1,2,4]triazolo[4,3-a][1]benzazepine-5-amine] |
| 0.3 | 2.4 | – | OC1Cc2cc(F)ccc2-n2c(nnc2[C@H]2CC[C@H](Oc3ccccn3)CC2)C1 (stereo partly drawn) [Example 111, 8-fluoro-1-[trans-4-(pyridin-2-yloxy)cyclohexyl]-5,6-dihydro-4H-[1,2,4]triazolo[4,3-a][1]benzazepin-5-ol] |
| 1.7 | 5.1 | – | CC(C)C(=O)N[C@@H]1Cc2cc(Cl)ccc2-n2c(nnc2[C@H]2CC[C@H](Oc3ccccn3)CC2)C1 [Example 124, N-{(5R)-8-chloro-1-[trans-4-(pyridin-2-yloxy)cyclohexyl]-5,6-dihydro-4H-[1,2,4]triazolo[4,3-a][1]benzazepin-5-yl}-2-methylpropanamide] |
| 0.2 | 5 | – | CC(C)N(C)C1Cc2cc(Cl)ccc2-n2c(nnc2[C@H]2CC[C@H](Oc3ccccn3)CC2)C1 (stereo partly drawn) [Example 138, 8-chloro-N-methyl-N-(propan-2-yl)-1-[trans-4-(pyridin-2-yloxy)cyclohexyl]-5,6-dihydro-4H-[1,2,4]triazolo[4,3-a][1]benzazepin-5-amine] |
| 1.7 | 12 | – | CN[C@H]1Cc2cc(Cl)ccc2-n2c(nnc2[C@H]2CC[C@H](Oc3ccccn3)CC2)C1 [Example 78, (5S)-8-chloro-N-methyl-1-[trans-4-(pyridin-2-yloxy)cyclohexyl]-5,6-dihydro-4H-[1,2,4]triazolo[4,3-a][1]benzazepine-5-amine] |
| 0.3 | 0.7 | – | CCOC1Cc2cc(Cl)ccc2-n2c(nnc2[C@H]2CC[C@H](Oc3ccccn3)CC2)C1 (stereo partly drawn) [Example 131, 8-chloro-5-ethoxy-1-[trans-4-(pyridin-2-yloxy)cyclohexyl]-5,6-dihydro-4H-[1,2,4]triazolo[4,3-a][1]benzazepine] |
| 17 | 260 | – | COc1ccc2c(c1)CC(N)Cc1nnc([C@H]3CC[C@H](Oc4ccccn4)CC3)n1-2 (stereo partly drawn) [Example 31, 8-methoxy-1-[trans-4-(pyridin-2-yloxy)cyclohexyl]-5,6-dihydro-4H-[1,2,4]triazolo[4,3-a][1]benzazepine-5-amine hydrochloride] |
| 0.6 | 5.5 | – | O=C(OC1Cc2cc(Cl)ccc2-n2c(nnc2[C@H]2CC[C@H](Oc3ccccn3)CC2)C1)C1CC(F)(F)C1 (stereo partly drawn) [Example 213, 8-chloro-1-[trans-4-(pyridin-2-yloxy)cyclohexyl]-5,6-dihydro-4H-[1,2,4]triazolo[4,3-a][1]benzazepin-5-yl 3,3-difluorocyclobutanecarboxylate] |
| 0.2 | 1.6 | – | C#CCN(C)[C@H]1Cc2cc(Cl)ccc2-n2c(nnc2[C@H]2CC[C@H](Oc3ccccn3)CC2)C1 [Example 209, (5S)-8-chloro-N-methyl-N-(prop-2-yn-1-yl)-1-[trans-4-(pyridin-2-yloxy)cyclohexyl]-5,6-dihydro-4H-[1,2,4]triazolo[4,3-a][1]benzazepin-5-amine] |
